From ChEMBL document CHEMBL1201862, “PubChem BioAssay data set” (2004)
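Dose response: 5 concentrations. Exposure: 48 h. Format: 96-well plates. Endpoint: linear interpolation; highest concentration if not reached. Abbreviation: GI50, concentration required for 50% inhibition of growth.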 Activity calls are given as the source filed them. Rule as the data show it: active = GI50 up to about 1.1 µM and inactive = higher.

Columns and labels:
Experiment in all cases: inhibition of tumour cell growth, NCI panel, 48 h
[1] = test system: HCT-15
[2] = test system: NCI-H226
[3] = test system: SN12C
[4] = test system: HCT-116
[5] = test system: OVCAR-5
[6] = test system: SK-MEL-2
[7] = test system: HT-29
[8] = test system: EKVX
[9] = test system: IGROV-1
[10] = test system: CAKI-1
[11] = test system: UACC-62
[12] = test system: SF-539
[13] = test system: OVCAR-3
[14] = test system: RXF 393
[15] = test system: SNB-75

Structure (SMILES) | GI50 [1] | GI50 [2] | GI50 [3] | GI50 [4] | GI50 [5] | GI50 [6] | GI50 [7] | GI50 [8] | GI50 [9] | GI50 [10] | GI50 [11] | GI50 [12] | GI50 [13] | GI50 [14] | GI50 [15]
COC(=O)C1=C(C)N(NC(N)=O)C2(N)N(NC(N)=O)C(C)=C(C(=O)OC)C12C#N (configuration not stated) | > 100 µM | > 100 µM (inactive) | > 100 µM (inactive) | > 100 µM (inactive) | > 100 µM (inactive) | > 100 µM (inactive) | > 100 µM (inactive) | > 100 µM (inactive) | > 100 µM (inactive) | > 100 µM (inactive) | > 100 µM (inactive) | > 100 µM (inactive) | > 100 µM (inactive) | – | –
O=C1C2Cc3ccccc3CN2C(=O)N1CN1CCN(CN2C(=O)C3Cc4ccccc4CN3C2=O)CC1 (configuration not stated) | > 100 µM | > 100 µM (inactive) | > 100 µM (inactive) | – | > 100 µM (inactive) | > 100 µM (inactive) | > 100 µM (inactive) | > 100 µM (inactive) | > 100 µM (inactive) | > 100 µM (inactive) | > 100 µM (inactive) | > 100 µM (inactive) | > 100 µM (inactive) | > 100 µM (inactive) | > 100 µM (inactive)
O=C1C=C(Nc2ccccc2C(=O)CC(=O)C(=O)Nc2ccc(Cl)c(Cl)c2)c2ccccc2C1=O | 20.4 µM | 55.5 µM (inactive) | 35.1 µM (inactive) | > 10 µM (inactive) | > 100 µM (inactive) | 30.6 µM (inactive) | > 100 µM (inactive) | > 10 µM (inactive) | > 100 µM (inactive) | 87.3 µM (inactive) | 23.6 µM (inactive) | 51.2 µM (inactive) | 34.4 µM (inactive) | 71.3 µM (inactive) | –
CCOC(=O)C1=C(C)N(NC(=O)c2ccccc2)C2(O)CCCC12C(=O)OCC (configuration not stated) | > 100 µM | > 100 µM (inactive) | > 100 µM (inactive) | > 100 µM (inactive) | > 100 µM (inactive) | > 100 µM (inactive) | > 100 µM (inactive) | > 100 µM (inactive) | > 100 µM (inactive) | > 100 µM (inactive) | > 100 µM (inactive) | > 100 µM (inactive) | > 100 µM (inactive) | > 100 µM (inactive) | 40.1 µM (inactive)
COc1cc(/C=C2\CCC(C)(CN(C)C)C2=O)cc(OC)c1OC (configuration not stated) | > 100 µM | > 100 µM (inactive) | > 100 µM (inactive) | > 79.3 µM (inactive) | > 100 µM (inactive) | > 100 µM (inactive) | > 100 µM (inactive) | > 58.3 µM (inactive) | > 100 µM (inactive) | > 100 µM (inactive) | 70.5 µM (inactive) | > 100 µM (inactive) | > 100 µM (inactive) | > 100 µM (inactive) | > 100 µM (inactive)
CN(C)C(=C1C(Br)=C(Br)C(Br)=C1Br)N(C)C | > 100 µM | – | > 100 µM (inactive) | – | > 100 µM (inactive) | > 100 µM (inactive) | > 100 µM (inactive) | > 100 µM (inactive) | > 100 µM (inactive) | > 100 µM (inactive) | > 100 µM (inactive) | > 100 µM (inactive) | > 100 µM (inactive) | > 100 µM (inactive) | 38.6 µM (inactive)
c1cc2c(cnc3cscc32)s1 | > 100 µM | > 100 µM (inactive) | > 100 µM (inactive) | > 100 µM (inactive) | > 100 µM (inactive) | > 100 µM (inactive) | > 100 µM (inactive) | – | – | 95.5 µM (inactive) | – | > 100 µM (inactive) | > 100 µM (inactive) | > 100 µM (inactive) | 57.7 µM (inactive)
CC1=NN(C(=O)Cc2ccccc2)C(=O)/C1=C\C=C\c1ccccc1 | > 100 µM | > 100 µM (inactive) | > 100 µM (inactive) | > 100 µM (inactive) | > 100 µM (inactive) | > 100 µM (inactive) | > 100 µM (inactive) | > 100 µM (inactive) | – | > 100 µM (inactive) | – | > 100 µM (inactive) | > 100 µM (inactive) | – | > 100 µM (inactive)
CON1C(=O)C2(CCCCC2)C(=O)C12C=CC(C)CC2 (configuration not stated) | > 100 µM | 76.6 µM (inactive) | > 100 µM (inactive) | – | – | > 100 µM (inactive) | 62.5 µM (inactive) | 48.2 µM (inactive) | > 100 µM (inactive) | > 100 µM (inactive) | > 100 µM (inactive) | > 100 µM (inactive) | > 100 µM (inactive) | 30.7 µM (inactive) | > 100 µM (inactive)
COC(=O)C1=C(c2ccc(OC)c(OC)c2)OC(c2cc(OC)c(OC)c(OC)c2)C1 (configuration not stated) | – | 50.8 µM (inactive) | 34.3 µM (inactive) | – | > 100 µM (inactive) | 20.1 µM (inactive) | > 100 µM (inactive) | > 100 µM (inactive) | 24.7 µM (inactive) | 60.3 µM (inactive) | – | 30.2 µM (inactive) | 38.1 µM (inactive) | 22.1 µM (inactive) | 7.31 µM (inactive)
CC1(C)CCc2cc3c(cc2O1)OC(C)(C)C1c2c(ccc4c2CCC(C)(C)O4)OC31 (configuration not stated) | > 100 µM | > 100 µM (inactive) | > 100 µM (inactive) | > 100 µM (inactive) | 68.4 µM (inactive) | > 100 µM (inactive) | > 100 µM (inactive) | 64.6 µM (inactive) | > 100 µM (inactive) | 99.8 µM (inactive) | > 100 µM (inactive) | > 100 µM (inactive) | 78.3 µM (inactive) | – | –
CCOC(=O)C(NC(=O)c1nc[nH]c1/N=N/N(C)C)C(C)C (configuration not stated) | > 100 µM | > 100 µM (inactive) | > 100 µM (inactive) | > 100 µM (inactive) | > 100 µM (inactive) | > 100 µM (inactive) | > 100 µM (inactive) | > 100 µM (inactive) | > 100 µM (inactive) | > 100 µM (inactive) | > 100 µM (inactive) | > 100 µM (inactive) | > 100 µM (inactive) | – | > 100 µM (inactive)
Nc1ncnc2c1ncn2CC(O)CO (configuration not stated) | > 100 µM | > 100 µM (inactive) | > 100 µM (inactive) | > 100 µM (inactive) | – | > 100 µM (inactive) | > 100 µM (inactive) | > 100 µM (inactive) | > 100 µM (inactive) | > 100 µM (inactive) | > 100 µM (inactive) | > 100 µM (inactive) | > 100 µM (inactive) | > 100 µM (inactive) | > 100 µM (inactive)
Oc1cc(-c2c[nH]c3ccccc23)nc2cc3c(cc12)OCO3 | > 100 µM | > 100 µM (inactive) | > 100 µM (inactive) | > 100 µM (inactive) | – | > 100 µM (inactive) | > 100 µM (inactive) | > 100 µM (inactive) | 83.2 µM (inactive) | – | 66.8 µM (inactive) | > 100 µM (inactive) | 8.61 µM (inactive) | > 100 µM (inactive) | 21.6 µM (inactive)
COc1ccc2c([nH]c3c(O)c(-c4c(C)cc5c([nH]c6c(CC=C(C)C)c(OC)ccc65)c4O)c(C)cc32)c1CC=C(C)C [BISMURRAYAFOLINE B] | > 100 µM | – | > 100 µM (inactive) | > 100 µM (inactive) | > 100 µM (inactive) | > 100 µM (inactive) | > 100 µM (inactive) | – | > 100 µM (inactive) | > 100 µM (inactive) | > 100 µM (inactive) | > 100 µM (inactive) | > 100 µM (inactive) | > 100 µM (inactive) | > 100 µM (inactive)
O=c1ccn(C2(CO)C=C(CO)C(O)C2O)c(=O)[nH]1 (configuration not stated) | > 25.7 µM | > 25.7 µM (inactive) | > 25.7 µM (inactive) | > 25.7 µM (inactive) | – | > 25.7 µM (inactive) | – | > 25.7 µM (inactive) | > 25.7 µM (inactive) | > 25.7 µM (inactive) | > 25.7 µM (inactive) | > 25.7 µM (inactive) | > 25.7 µM (inactive) | > 25.7 µM (inactive) | > 25.7 µM (inactive)
C1=CC=C2NCCOCC/N=C3/C=CC=CC=C3NCCOCC/N=C\2C=C1 | 41.3 µM | > 100 µM (inactive) | 77.6 µM (inactive) | 28.4 µM (inactive) | > 100 µM (inactive) | 69 µM (inactive) | 15.7 µM (inactive) | > 100 µM (inactive) | > 100 µM (inactive) | > 100 µM (inactive) | 47.9 µM (inactive) | – | > 100 µM (inactive) | – | > 100 µM (inactive)
NC(=O)N/N=C(\C(=O)C(=O)Nc1ccc(Cl)c(C(F)(F)F)c1)c1nc2ccc(C(=O)c3ccccc3)cc2nc1O | > 100 µM | 47.3 µM (inactive) | 99.5 µM (inactive) | > 100 µM (inactive) | > 100 µM (inactive) | > 100 µM (inactive) | 95.3 µM (inactive) | 27.2 µM (inactive) | > 100 µM (inactive) | 27.5 µM (inactive) | 59 µM (inactive) | > 100 µM (inactive) | – | 66.4 µM (inactive) | –
S=c1nc2c(c[nH]1)C1c3ccccc3C2c2ccccc21 | 80.2 µM | > 100 µM (inactive) | > 100 µM (inactive) | > 100 µM (inactive) | > 100 µM (inactive) | 57.7 µM (inactive) | > 10 µM (inactive) | 38.5 µM (inactive) | 69.2 µM (inactive) | – | 59.6 µM (inactive) | > 100 µM (inactive) | 67.5 µM (inactive) | 35.2 µM (inactive) | 15.9 µM (inactive)
CC1CN(C(=O)CN2CCC(CCCCN(C)C)CC2)c2ccccc2NC1=O (configuration not stated) | > 100 µM | > 100 µM (inactive) | > 100 µM (inactive) | > 100 µM (inactive) | > 100 µM (inactive) | – | > 100 µM (inactive) | – | > 100 µM (inactive) | 90.6 µM (inactive) | > 100 µM (inactive) | – | > 100 µM (inactive) | – | –
CC1CC(c2ccc([N+](=O)[O-])cc2)=Nc2ccccc2S1 (configuration not stated) | 15.4 µM | 23.2 µM (inactive) | 18.2 µM (inactive) | 1.75 µM (inactive) | 23.9 µM (inactive) | – | 13.4 µM (inactive) | 23.6 µM (inactive) | 18 µM (inactive) | 24.4 µM (inactive) | 14 µM (inactive) | 16.9 µM (inactive) | 11.5 µM (inactive) | 17.5 µM (inactive) | 37.6 µM (inactive)
